In patent EP3928779A1 (Chugai Seiyaku Kabushiki Kaisha, priority 2014, dated 2016):

test system: rat small-intestinal brush border membrane vesicles; experiment: Inhibitory effect on 33PO4 uptake into rat small-intestinal brush border membrane vesicles (rapid filtration method); format: biochemical; details: 33PO4 uptake into rat small-intestinal BBMVs; test compound 1 µM; reacted for 60 seconds
Description: Brush border membrane vesicles (BBMVs) were prepared using the upper region of the small intestine of each Wistar female rat (4-5 weeks old). […] The ^33PO4 transport activity of the small-intestinal BBMVs was determined by the rapid filtration method. […] Then, ice-cold buffer C (110 mM NaCl, 1 mM KH2PO4, and 10 mM HEPES (pH 7.5)) was added to each reaction mixture, which was immediately suctionfiltered through a Millipore filter. The filter was washed with buffer C, and each sample was then dissolved in a liquid scintillator. The amount of ^33PO4 uptake into BBMVs was measured using a liquid scintillation counter. […]

Row | Structure (SMILES) | Rate of uptake inhibition (%) (1 µM)
1 | CSc1ccc(-c2cc(C(F)(F)F)ccc2NC(=O)C2=C(O)[C@@]3(C)CCCN3N(Cc3ccc(CCCCCCC(=O)O)c(F)c3F)C2=O)cn1 [Example 115, 7-[4-[[(4aR)-4-1-Hydroxy-4a-methyl-3-[[2-(6-methylsulfanylpyridin-3-yl)-4-(trifluoromethyl)phenyl]carbamoyl]-2-oxo-6,7-dihydro-5H-pyrrolo[1,2-b]pyridazin-1-yl]methyl]-2,3-difluorophenyl]heptanoate] | 85%
2 | CN1[C@@H](C(C)(C)C)C(O)=C(C(=O)Nc2ccc(Br)c(C(F)(F)F)c2)C(=O)N1Cc1cccc(F)c1F [Example 243] | 63%
3 | C[C@]12CCCN1N(CCCC(F)(F)F)C(=O)C(C(=O)Nc1ccc(C(F)(F)F)cc1-c1cc(C(F)(F)F)ncn1)=C2O [Example 234, (4aR)-4-Hydroxy-4a-methyl-2-oxo-1-(4,4,4-trifluorobutyl)-N-[4-(trifluoromethyl)-2-[6-(trifluoromethyl)pyrimidin-4-yl]henyl]-6,7-dihydro-5H-pyrrolo[1,2-b]pyridazine-3-carboxamide] | 73%
4 | CN(CCOCCC(=O)NCC(O)CO)CCOc1ccc(CN2C(=O)C(C(=O)Nc3ccc(C(F)(F)F)cc3-c3cc(C(F)(F)F)ncn3)=C(O)C3(CCCC3)N2C)c(F)c1F (stereo not shown) [Example 426] | 24%
5 | CN(C)S(=O)(=O)c1ccc(-c2nc(C(F)(F)F)ccc2NC(=O)C2=C(O)[C@@]3(C)CCCN3N(Cc3cccc(F)c3F)C2=O)cc1 [Example 87] | 84%
6 | CN(CCOc1ccc(CN2C(=O)C(C(=O)Nc3ccc(C(F)(F)F)cc3-c3cc(C(F)(F)F)ncn3)=C(O)C3(CCCC3)N2C)c(F)c1F)C1COC1 [Example 412, 7-(2,3-Difluoro-4-(2-(methyl(oxetan-3-yl)amino)ethoxy)benzyl)-10-hydroxy-6-methyl-8-oxo-N-(4-(trifluoromethyl)-2-(6-(trifluoromethyl)pyrimidin-4-yl)phenyl)-6,7-diazaspiro[4.5]dec-9-ene-9-carboxamide] | 52%
7 | COCCN(C)CCNc1ccc(CN2C(=O)C(C(=O)Nc3ccc(C(F)(F)F)cc3-c3cc(C(F)(F)F)ncn3)=C(O)C3(CCCC3)N2C)c(F)c1F [Example 417, 7-(2,3-Difluoro-4-((2-((2-methoxyethyl)(methyl)amino)ethyl)amino)benzyl)-10-hydroxy-6-methyl-8-oxo-N-(4-(trifluoromethyl)-2-(6-(trifluoromethyl)pyrimidin-4-yl)phenyl)-6,7-diazaspiro[4.5]dec-9-ene-9-carboxamide] | 48%
8 | CN1[C@@H](C(C)(C)C)C(O)=C(C(=O)Nc2cnc(C(F)(F)F)nc2-c2ccc(C(F)(F)F)nc2)C(=O)N1Cc1ccc(OCCN2CCOCC2)c(F)c1F [Example 273] | 41%
9 | CN1N(Cc2cccc(F)c2F)C(=O)C(C(=O)Nc2cc(F)c(Br)c(F)c2)=C(O)C12CCC2 [Example 257] | 71%
10 | CC(C)[C@H]1C(O)=C(C(=O)Nc2ccc(Cl)cc2-c2ccc(C(F)(F)F)nc2)C(=O)N(Cc2ccc(OCCN3CCOCC3)c(F)c2F)N1C [Example 281] | 41%
11 | C[C@]12CCCN1N(Cc1cccc(F)c1F)C(=O)C(C(=O)Nc1ccc(C(F)(F)F)cc1-c1cnc(N3CC4(COC4)C3)c(C#N)c1)=C2O [Example 111, (4aR)-N-[2-[5-Cyano-6-(2-oxa-6-azaspiro[3.3]heptan-6-yl)pyridin-3-yl]-4-(trifluoromethyl)phenyl]-1-[(2,3-difluorophenyl)methyl]-4-hydroxy-4a-methyl-2-oxo-6.7-dihydro-5H-pyrrolo[1,2-b]pyridazine-3-carboxamide] | 56%
12 | CN1N(Cc2ccc(OCCN3CCC(N4CCOCC4)CC3)c(F)c2F)C(=O)C(C(=O)Nc2ccc(C(F)(F)F)cc2-c2cc(C(F)(F)F)ncn2)=C(O)C12CCC2 [Example 358] | 34%
13 | CN1N(Cc2cccc(F)c2F)C(=O)C(C(=O)Nc2ccc(C(F)(F)F)nc2-c2ccc(C(F)(F)F)nc2)=C(O)C1(C)C [Example 304] | 51%
